Some test systems named below: CAKI-1 renal; NCI-H522 lung; RXF 393 renal; SF-268 CNS; SK-MEL-5 melanoma; SN12C renal; UACC-62 melanoma; MALME-3M melanoma.
Holding throughout (assay): NCI-60 cell line screen, 48 h

For twelve molecules, TGI and GI50 results are on record in PubChem BioAssay (NCI).

The structures appear in SMILES notation.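 1) Cells in 96-well plates. 2) Compound, 48 h, 5 concentrations. 3) Linear interpolation between surrounding doses. 4) Unreached endpoint = highest concentration. The concentration for 50% growth inhibition is given as GI50. TGI marks complete inhibition of growth.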 Some results are limits rather than exact numbers.

`CC(C)=CCC(O)C1=CC(=O)c2c(O)ccc(O)c2C1=O` (centres undefined): the TGI in the assay with CAKI-1 renal stood at 0.986 µM; in the assay with NCI-H522 lung, 0.694 µM; in the assay on RXF 393 renal, 2.11 µM; in the assay with SF-268 CNS, 6.09 µM; in the assay on SK-MEL-5 melanoma, 1.88 µM; in the assay with SN12C renal it was 1.45 µM. The molecule also had a TGI in the assay with UACC-62 melanoma of 3.41 µM.

With `O=[N+]([O-])c1ccc(Cl)cc1N/N=C/c1ccnc2ccccc12`, the TGI in the assay on CAKI-1 renal, with NCI-H522 lung, in the assay with RXF 393 renal, in the assay on SF-268 CNS, with SK-MEL-5 melanoma and with SN12C renal was > 100 µM in each case. Besides, the TGI with UACC-62 melanoma is > 100 µM.

With `C[C@]12CCC3c4ccc(O)cc4CCC3C1CC[C@@]2(O)CNC(=O)/C=C/c1ccc(O)c(O)c1` (some centres undefined), the GI50 was 11.7 µM in the assay on CAKI-1 renal; 2.51 µM in the assay on NCI-H522 lung; 3.29 µM in the assay with RXF 393 renal; 9.45 µM in the assay on SF-268 CNS; 3.23 µM with SK-MEL-5 melanoma; 7.54 µM in the assay with SN12C renal. Besides, in the assay on UACC-62 melanoma, the GI50 was 5.22 µM. For the same molecule, the TGI was 33 µM in the assay on CAKI-1 renal; 5.91 µM with NCI-H522 lung; 18.7 µM in the assay on RXF 393 renal; > 100 µM with SF-268 CNS; 12 µM with SK-MEL-5 melanoma; 20.6 µM in the assay with SN12C renal. The molecule also displayed a TGI in the assay on UACC-62 melanoma of 17 µM.

In the case of `O=C1CCC2(c3ccc(Cl)cc3)Nc3ccncc3N12` (centres undefined), the TGI in the assay on MALME-3M melanoma, in the assay with NCI-H522 lung, in the assay on SF-268 CNS, with SN12C renal and in the assay on UACC-62 melanoma was > 10 µM throughout.

With `COc1ccc2nc(NC(=O)CSc3nnc4n3S(=O)(=O)c3ccccc3N4c3ccccc3)sc2c1`, the GI50 in the assay with CAKI-1 renal is > 100 µM; in the assay with MALME-3M melanoma, > 100 µM; with NCI-H522 lung, 30.4 µM; in the assay on SF-268 CNS, > 100 µM; in the assay with SK-MEL-5 melanoma, > 100 µM; in the assay on UACC-62 melanoma, 48.5 µM. Further, the TGI in the assay with CAKI-1 renal, with MALME-3M melanoma, in the assay on NCI-H522 lung, in the assay on SF-268 CNS, in the assay on SK-MEL-5 melanoma and in the assay with UACC-62 melanoma was > 100 µM throughout.

Regarding `COC[C@H]1Cn2cc(-c3nc(Nc4ccnn4C)ncc3C)nc2C(=O)N1Cc1ccc(F)c(F)c1`, the GI50 is 0.795 µM with CAKI-1 renal; 1.66 µM in the assay on RXF 393 renal; 29.3 µM in the assay with SF-268 CNS; 9.51 µM in the assay with SK-MEL-5 melanoma; 11.1 µM with SN12C renal; 0.0228 µM in the assay with UACC-62 melanoma. Besides, the TGI with CAKI-1 renal is > 100 µM; in the assay with NCI-H522 lung, > 100 µM; in the assay on RXF 393 renal, > 100 µM; in the assay with SF-268 CNS it was > 100 µM; in the assay on SK-MEL-5 melanoma it was > 83.3 µM; with SN12C renal, > 100 µM. Besides, the TGI with UACC-62 melanoma is > 100 µM.

With `NC(=O)C(=Cn1c(=S)[nH]c2ccc([N+](=O)[O-])cc21)C(N)=O`, the TGI in the assay with CAKI-1 renal, in the assay on RXF 393 renal, with SF-268 CNS, with SK-MEL-5 melanoma, in the assay with SN12C renal and with UACC-62 melanoma was > 100 µM throughout.

Regarding `COc1cc(/C(C#N)=C/c2nc3c(N4CCOCC4)nc(Cl)nc3n2C)cc(OC)c1OC`, the GI50 with CAKI-1 renal is < 0.01 µM; in the assay with MALME-3M melanoma, < 0.01 µM; with NCI-H522 lung, < 0.01 µM; in the assay on SF-268 CNS, < 0.0118 µM; in the assay with SK-MEL-5 melanoma, < 0.01 µM; in the assay with SN12C renal, < 0.01 µM. For the same molecule, in the assay with UACC-62 melanoma, the GI50 was < 0.01 µM. The TGI with CAKI-1 renal was 2.87 µM; with MALME-3M melanoma it was 20.8 µM; with NCI-H522 lung it was 2.88 µM; in the assay on SF-268 CNS it was > 26.8 µM; in the assay with SK-MEL-5 melanoma it was 0.0268 µM; in the assay on SN12C renal, 22.1 µM. Also, in the assay on UACC-62 melanoma, the TGI is 15.5 µM.

Take `Cc1ccc(-n2c3nc(=O)[nH]c(=O)c-3cc3cc([N+](=O)[O-])ccc32)cc1`: the GI50 in the assay on CAKI-1 renal is 10.4 µM; with NCI-H522 lung it was 33.2 µM; with RXF 393 renal it was 49.9 µM; with SF-268 CNS, 17.3 µM; in the assay with SK-MEL-5 melanoma, 16 µM; with SN12C renal, 20.6 µM. Besides, in the assay on UACC-62 melanoma, the GI50 is 12.1 µM. Besides, the TGI with CAKI-1 renal is 39.2 µM; with NCI-H522 lung it was 77.5 µM; with RXF 393 renal it was > 100 µM; with SF-268 CNS, 54.8 µM; in the assay with SK-MEL-5 melanoma it was 36.8 µM; in the assay with SN12C renal, 56.5 µM. In the assay with UACC-62 melanoma, this molecule came in with a TGI of 29.8 µM.

As for `CC1SC(c2ccc(F)cc2)N(NC(=O)C(O)c2ccccc2)C1=O` (centres undefined), the GI50 with CAKI-1 renal, in the assay with NCI-H522 lung, in the assay on RXF 393 renal, in the assay on SF-268 CNS, in the assay on SK-MEL-5 melanoma and in the assay on SN12C renal was > 100 µM throughout. The GI50 in the assay on UACC-62 melanoma was > 100 µM. Moreover, the TGI with CAKI-1 renal, in the assay on NCI-H522 lung, in the assay with RXF 393 renal, in the assay on SF-268 CNS, in the assay on SK-MEL-5 melanoma and in the assay on SN12C renal was > 100 µM in each case. Besides, in the assay on UACC-62 melanoma, the TGI is > 100 µM.

As for `C=C1C(=O)O[C@H]2[C@H]1CC/C(COC(=O)NCc1ccc(Cn3c(=O)sn(-c4ccc(OC)cc4)c3=O)cc1)=C\CC[C@@]1(C)O[C@@H]21`, the GI50 was 2.34 µM in the assay with CAKI-1 renal; 1.81 µM in the assay with MALME-3M melanoma; 1.67 µM in the assay with NCI-H522 lung; 3.14 µM in the assay on SF-268 CNS; 12 µM in the assay on SK-MEL-5 melanoma; 2.14 µM in the assay with SN12C renal. For the same molecule, the GI50 in the assay with UACC-62 melanoma was 1.86 µM. Also, the TGI worked out at 6.83 µM in the assay with CAKI-1 renal; 3.76 µM in the assay with MALME-3M melanoma; 3.1 µM in the assay on NCI-H522 lung; 9.86 µM in the assay with SF-268 CNS; 24.8 µM in the assay with SK-MEL-5 melanoma; 4.96 µM in the assay with SN12C renal. Further, in the assay on UACC-62 melanoma, the TGI amounted to 3.84 µM.

As for `O=C(/C(=C/c1ccc([N+](=O)[O-])cc1)SCc1ccccc1)c1ccc(Cl)cc1`, the GI50 in the assay with MALME-3M melanoma is 3.12 µM; with NCI-H522 lung, 3.96 µM; with RXF 393 renal, 1.68 µM; in the assay on SF-268 CNS, 3.09 µM; in the assay with SK-MEL-5 melanoma, 3.41 µM; with SN12C renal, 2.66 µM. For the same molecule, the GI50 in the assay with UACC-62 melanoma was 2.56 µM. The TGI in the assay on MALME-3M melanoma was 11.7 µM; in the assay on NCI-H522 lung it was 10.5 µM; with RXF 393 renal it was 3.47 µM; in the assay with SF-268 CNS, 13.1 µM; with SK-MEL-5 melanoma, 12.4 µM; with SN12C renal it was 8.58 µM. The molecule further returned a TGI in the assay on UACC-62 melanoma of 9.12 µM.
